Reference: ChEMBL document CHEMBL4422610, “HDAC as onco target: Reviewing the synthetic approaches with SAR study of their inhibitors” (Eur J Med Chem, 2018)

Legend:
Histone deacetylase 11 = molecular target: T1, Histone deacetylase 11 (Homo sapiens, UniProt Q96DB2); test: Inhibition of human HDAC11 using fluorogenic HDAC substrate
T1 sequence (Q96DB2 whole entry): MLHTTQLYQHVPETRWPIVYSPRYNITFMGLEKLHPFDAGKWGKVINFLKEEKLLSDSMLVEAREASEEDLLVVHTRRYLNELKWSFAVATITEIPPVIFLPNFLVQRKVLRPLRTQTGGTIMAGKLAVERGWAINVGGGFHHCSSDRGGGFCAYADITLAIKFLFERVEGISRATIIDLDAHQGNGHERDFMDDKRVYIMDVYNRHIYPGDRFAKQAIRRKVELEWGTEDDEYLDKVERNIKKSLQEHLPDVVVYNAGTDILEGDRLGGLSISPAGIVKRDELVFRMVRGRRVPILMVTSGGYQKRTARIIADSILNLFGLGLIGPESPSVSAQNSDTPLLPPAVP

Histone deacetylase 2 = Histone deacetylase 2 (Homo sapiens, UniProt Q92769); test: Inhibition of human HDAC2 using fluorogenic HDAC substrate
Histone deacetylase 2, sequence (Q92769 whole entry): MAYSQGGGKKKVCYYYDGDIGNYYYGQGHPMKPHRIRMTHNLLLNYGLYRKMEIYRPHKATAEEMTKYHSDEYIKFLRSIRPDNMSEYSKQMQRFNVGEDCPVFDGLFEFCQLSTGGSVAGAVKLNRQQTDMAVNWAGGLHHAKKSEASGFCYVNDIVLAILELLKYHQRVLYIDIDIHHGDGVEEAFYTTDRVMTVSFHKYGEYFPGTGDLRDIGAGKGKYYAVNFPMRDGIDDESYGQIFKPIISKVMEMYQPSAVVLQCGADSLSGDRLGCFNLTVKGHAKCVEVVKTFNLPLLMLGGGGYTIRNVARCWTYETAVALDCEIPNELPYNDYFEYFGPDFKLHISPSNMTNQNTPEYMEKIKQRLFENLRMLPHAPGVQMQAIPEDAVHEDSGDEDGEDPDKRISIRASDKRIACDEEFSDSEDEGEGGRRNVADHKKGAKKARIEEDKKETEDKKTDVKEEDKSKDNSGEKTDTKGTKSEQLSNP

Histone deacetylase 5 = Histone deacetylase 5 (Homo sapiens, UniProt Q9UQL6); test: Inhibition of human HDAC5 using fluorogenic HDAC substrate
Histone deacetylase 5, sequence (Q9UQL6 whole entry): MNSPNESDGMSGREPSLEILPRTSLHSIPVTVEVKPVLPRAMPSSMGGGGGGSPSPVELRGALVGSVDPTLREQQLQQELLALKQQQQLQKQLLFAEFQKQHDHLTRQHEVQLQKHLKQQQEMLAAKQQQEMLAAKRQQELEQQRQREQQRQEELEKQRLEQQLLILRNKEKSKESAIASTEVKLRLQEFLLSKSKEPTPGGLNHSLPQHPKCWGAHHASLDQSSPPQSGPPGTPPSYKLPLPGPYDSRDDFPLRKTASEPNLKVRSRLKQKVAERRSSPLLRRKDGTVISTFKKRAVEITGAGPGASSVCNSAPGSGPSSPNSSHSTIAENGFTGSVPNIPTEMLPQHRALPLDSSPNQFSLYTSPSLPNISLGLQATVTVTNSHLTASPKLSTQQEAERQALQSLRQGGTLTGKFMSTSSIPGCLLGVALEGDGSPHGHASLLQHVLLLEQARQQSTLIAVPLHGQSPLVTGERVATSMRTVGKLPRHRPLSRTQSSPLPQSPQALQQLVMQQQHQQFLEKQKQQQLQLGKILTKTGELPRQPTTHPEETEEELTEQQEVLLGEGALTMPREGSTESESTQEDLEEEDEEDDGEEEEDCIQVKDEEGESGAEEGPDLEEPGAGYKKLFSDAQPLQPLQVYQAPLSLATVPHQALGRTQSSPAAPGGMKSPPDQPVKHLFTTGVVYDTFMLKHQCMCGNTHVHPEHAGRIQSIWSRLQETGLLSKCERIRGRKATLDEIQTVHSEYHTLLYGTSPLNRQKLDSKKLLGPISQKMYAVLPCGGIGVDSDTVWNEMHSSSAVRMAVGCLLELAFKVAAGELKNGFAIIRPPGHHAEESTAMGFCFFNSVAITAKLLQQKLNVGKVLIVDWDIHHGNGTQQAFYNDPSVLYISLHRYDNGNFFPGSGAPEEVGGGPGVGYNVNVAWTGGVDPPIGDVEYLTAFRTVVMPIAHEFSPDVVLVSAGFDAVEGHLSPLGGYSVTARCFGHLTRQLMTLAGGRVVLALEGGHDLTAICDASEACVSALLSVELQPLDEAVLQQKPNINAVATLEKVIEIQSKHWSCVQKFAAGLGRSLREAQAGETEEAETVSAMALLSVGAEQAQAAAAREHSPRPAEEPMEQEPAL

Histone deacetylase 9 = Histone deacetylase 9 (Homo sapiens, UniProt Q9UKV0); test: Inhibition of human HDAC9 using fluorogenic HDAC substrate
Histone deacetylase 9, sequence (Q9UKV0 whole entry): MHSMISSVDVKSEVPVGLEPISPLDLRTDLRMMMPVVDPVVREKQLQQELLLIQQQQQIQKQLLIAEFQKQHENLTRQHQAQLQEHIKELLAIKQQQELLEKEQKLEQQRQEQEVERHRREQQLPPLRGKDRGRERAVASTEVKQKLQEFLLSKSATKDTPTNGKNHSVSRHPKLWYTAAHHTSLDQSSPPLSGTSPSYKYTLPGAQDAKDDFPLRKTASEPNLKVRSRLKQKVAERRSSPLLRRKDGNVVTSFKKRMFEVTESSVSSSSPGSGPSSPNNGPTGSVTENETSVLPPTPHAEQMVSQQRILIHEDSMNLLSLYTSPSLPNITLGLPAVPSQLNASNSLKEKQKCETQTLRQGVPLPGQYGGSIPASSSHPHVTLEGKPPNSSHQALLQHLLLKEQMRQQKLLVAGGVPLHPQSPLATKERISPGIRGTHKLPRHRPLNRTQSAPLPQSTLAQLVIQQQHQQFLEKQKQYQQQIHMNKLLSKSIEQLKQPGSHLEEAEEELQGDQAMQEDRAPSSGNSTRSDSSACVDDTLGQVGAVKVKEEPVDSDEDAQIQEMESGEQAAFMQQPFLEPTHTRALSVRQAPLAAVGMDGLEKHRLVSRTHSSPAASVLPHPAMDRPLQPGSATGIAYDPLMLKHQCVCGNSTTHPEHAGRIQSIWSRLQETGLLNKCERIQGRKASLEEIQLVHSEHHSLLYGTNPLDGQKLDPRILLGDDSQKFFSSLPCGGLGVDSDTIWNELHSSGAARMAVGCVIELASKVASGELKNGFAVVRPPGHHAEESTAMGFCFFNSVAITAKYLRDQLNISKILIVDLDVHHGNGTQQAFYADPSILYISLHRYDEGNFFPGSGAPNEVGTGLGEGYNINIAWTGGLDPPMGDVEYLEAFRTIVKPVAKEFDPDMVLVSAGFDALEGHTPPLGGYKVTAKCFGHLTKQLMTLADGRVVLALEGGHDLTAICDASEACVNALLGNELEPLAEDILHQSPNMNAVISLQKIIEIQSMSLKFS

Histone deacetylase 3 = Histone deacetylase 3 (Homo sapiens, UniProt O15379); test: Inhibition of human HDAC3 using fluorogenic HDAC substrate
Histone deacetylase 3, sequence (O15379 whole entry): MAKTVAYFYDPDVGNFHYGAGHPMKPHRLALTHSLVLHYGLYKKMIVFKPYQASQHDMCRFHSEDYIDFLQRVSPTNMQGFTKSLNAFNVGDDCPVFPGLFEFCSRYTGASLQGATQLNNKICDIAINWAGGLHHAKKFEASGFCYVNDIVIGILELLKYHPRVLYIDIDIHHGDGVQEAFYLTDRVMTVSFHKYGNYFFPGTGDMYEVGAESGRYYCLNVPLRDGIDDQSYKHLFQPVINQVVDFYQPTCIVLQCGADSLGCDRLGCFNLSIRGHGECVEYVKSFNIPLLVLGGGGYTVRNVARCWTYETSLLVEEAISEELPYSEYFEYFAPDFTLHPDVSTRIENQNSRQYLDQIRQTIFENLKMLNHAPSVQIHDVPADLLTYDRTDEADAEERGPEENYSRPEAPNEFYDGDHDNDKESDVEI

[1] = molecular target: T2, Protein deacetylase HDAC6 (Homo sapiens, UniProt Q9UBN7); test: Inhibition of human HDAC6 using fluorogenic HDAC substrate
T2 sequence (Q9UBN7 whole entry): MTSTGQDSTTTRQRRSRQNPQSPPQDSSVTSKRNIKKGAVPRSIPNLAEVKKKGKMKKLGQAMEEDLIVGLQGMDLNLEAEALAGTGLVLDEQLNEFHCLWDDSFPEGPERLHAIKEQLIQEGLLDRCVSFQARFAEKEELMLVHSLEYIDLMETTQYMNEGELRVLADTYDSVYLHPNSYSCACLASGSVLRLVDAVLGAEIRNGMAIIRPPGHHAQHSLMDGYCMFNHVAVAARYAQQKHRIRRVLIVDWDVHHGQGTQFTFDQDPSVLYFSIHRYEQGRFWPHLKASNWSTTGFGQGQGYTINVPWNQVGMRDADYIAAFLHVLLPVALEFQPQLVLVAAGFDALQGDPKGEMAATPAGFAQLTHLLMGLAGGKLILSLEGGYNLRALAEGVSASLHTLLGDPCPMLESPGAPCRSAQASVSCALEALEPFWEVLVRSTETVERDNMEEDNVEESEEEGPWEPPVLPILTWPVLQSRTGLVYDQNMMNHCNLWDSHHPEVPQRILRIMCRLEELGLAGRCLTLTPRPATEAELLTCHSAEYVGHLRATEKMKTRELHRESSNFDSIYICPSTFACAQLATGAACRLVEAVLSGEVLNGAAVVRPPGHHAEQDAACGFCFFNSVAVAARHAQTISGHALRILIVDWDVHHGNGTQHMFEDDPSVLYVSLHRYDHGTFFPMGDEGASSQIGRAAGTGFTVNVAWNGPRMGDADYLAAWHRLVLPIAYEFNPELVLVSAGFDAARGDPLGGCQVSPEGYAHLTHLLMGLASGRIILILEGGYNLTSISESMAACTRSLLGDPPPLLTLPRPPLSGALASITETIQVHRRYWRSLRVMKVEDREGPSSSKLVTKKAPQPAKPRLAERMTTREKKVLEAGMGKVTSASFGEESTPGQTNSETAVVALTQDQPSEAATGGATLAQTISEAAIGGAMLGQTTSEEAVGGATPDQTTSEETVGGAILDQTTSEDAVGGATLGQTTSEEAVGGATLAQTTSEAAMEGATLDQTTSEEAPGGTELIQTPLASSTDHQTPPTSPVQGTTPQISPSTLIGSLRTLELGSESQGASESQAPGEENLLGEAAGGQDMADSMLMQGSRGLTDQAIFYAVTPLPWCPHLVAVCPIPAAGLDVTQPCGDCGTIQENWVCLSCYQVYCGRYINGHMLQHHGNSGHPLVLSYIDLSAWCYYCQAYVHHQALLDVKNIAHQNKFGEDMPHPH

Histone deacetylase 8 = molecular target: T3, Histone deacetylase 8 (Homo sapiens, UniProt Q9BY41); test: Inhibition of human HDAC8 using fluorogenic HDAC substrate
T3 sequence (Q9BY41 whole entry): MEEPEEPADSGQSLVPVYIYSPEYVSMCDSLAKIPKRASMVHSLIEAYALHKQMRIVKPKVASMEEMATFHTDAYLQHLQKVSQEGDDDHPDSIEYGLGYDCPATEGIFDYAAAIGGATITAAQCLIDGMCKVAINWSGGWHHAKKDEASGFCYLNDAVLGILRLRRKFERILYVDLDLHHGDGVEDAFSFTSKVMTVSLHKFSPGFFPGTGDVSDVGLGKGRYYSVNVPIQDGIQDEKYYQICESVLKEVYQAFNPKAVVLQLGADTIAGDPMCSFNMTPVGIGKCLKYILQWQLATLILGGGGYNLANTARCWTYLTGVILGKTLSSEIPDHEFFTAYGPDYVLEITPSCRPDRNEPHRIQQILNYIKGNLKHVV

[2] = molecular target: T4, Polyamine deacetylase HDAC10 (Homo sapiens, UniProt Q969S8); test: Inhibition of human HDAC10 using fluorogenic HDAC substrate
T4 sequence (Q969S8 whole entry): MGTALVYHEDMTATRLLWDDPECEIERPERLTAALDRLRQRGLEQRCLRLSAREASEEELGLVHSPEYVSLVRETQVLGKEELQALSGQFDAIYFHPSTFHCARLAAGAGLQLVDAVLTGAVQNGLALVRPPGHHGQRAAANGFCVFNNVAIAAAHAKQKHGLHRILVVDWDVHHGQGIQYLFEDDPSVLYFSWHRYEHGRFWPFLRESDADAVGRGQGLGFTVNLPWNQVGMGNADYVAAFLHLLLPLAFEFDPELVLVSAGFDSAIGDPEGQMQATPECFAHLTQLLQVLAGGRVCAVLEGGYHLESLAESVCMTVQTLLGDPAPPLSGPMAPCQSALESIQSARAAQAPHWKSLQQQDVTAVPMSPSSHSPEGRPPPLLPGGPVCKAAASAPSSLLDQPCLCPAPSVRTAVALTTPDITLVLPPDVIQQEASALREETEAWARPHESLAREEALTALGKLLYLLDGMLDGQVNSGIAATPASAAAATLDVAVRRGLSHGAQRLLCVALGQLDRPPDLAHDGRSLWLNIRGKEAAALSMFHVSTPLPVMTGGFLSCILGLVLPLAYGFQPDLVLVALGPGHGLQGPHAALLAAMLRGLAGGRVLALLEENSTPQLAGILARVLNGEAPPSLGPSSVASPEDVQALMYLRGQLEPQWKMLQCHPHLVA

- IC50 (Histone deacetylase 11): 0.54 µM
- IC50 (Histone deacetylase 2): 26 µM
- IC50 (Histone deacetylase 5): 12 µM
- IC50 (Histone deacetylase 9): 8.9 µM
- IC50 (Histone deacetylase 3): > 30 µM
- IC50 [1]: 0.006 µM
- IC50 (Histone deacetylase 8): 2.9 µM
- IC50 [2]: 14 µM
SMILES: O=C(NO)c1ccc(CN2c3ccccc3CC[C@@H]3CCCC[C@H]32)cc1
